Structures can show the parent of a compound that is named as a salt.
Tests used:
Type in all cases: binding
[1] = target: T1, Recombinant human integrin ανβ5 (Homo sapiens, UniProt P06756+P18084); experiment: Solid Phase Receptor Assay (SPRA) for ανβ5 function; conditions: for IC50: plate-bound human vitronectin, read-out: αvβ5 SPRA IC50
T1 construct: purchased R&D Systems 2528-AV
Description: D. Solid Phase Receptor Assay (SPRA) for ανβ5 Function
Wells were washed 3 times with 150 μL TBS+ and then 150 μL of blocking buffer (TBS+ with 1% bovine serum albumin, Sigma A7906) was added. The plate was incubated for 1 hr at 37° C. and then washed 3× with TBS+ buffer. […] Compounds were diluted to 20 μM and then 1 μL was added to each well of the plate according to a standard template with each sample repeated in triplicate. After incubation for two hours at room temperature, the plate was washed 3× with 150 μL of TBS+ buffer. To each well, 50 μl of biotinylated anti-αν antibody (R&D Systems, BAF1219) at 0.5 μg/mL in TBS+/0.1% BSA at 0.5 μg/mL were added and the plate covered and incubated for 1 hr at room temperature. After washing the plate 3 with 150 μL of TBS+ buffer, 50 μL of streptavidin-conjugated horseradish peroxidase (R&D Systems, DY998) diluted in TBS+ blocking buffer were added to the wells and the plate incubated for 20 min at room temperature. The plate was washed 3× with TBS+ buffer followed by 50 μL of TMB substrate (Sigma T4444) added to each well in the dark and the plate incubated for 5 min at room temperature. 25 μL of 1.0 M phosphoric acid was added as a stop solution and the plates were read at 450 nm using a Spectramax plate reader.

[2] = target: T2, Recombinant human integrin α5β1 (Homo sapiens, UniProt P05556+P08648); experiment: Solid Phase Receptor Assay (SPRA) for α5β1 function; conditions: for IC50: plate-bound human fibronectin
T2 construct: purchased R&D Systems 3230-A5
T2 sequence (P08648 42-995 limits assumed): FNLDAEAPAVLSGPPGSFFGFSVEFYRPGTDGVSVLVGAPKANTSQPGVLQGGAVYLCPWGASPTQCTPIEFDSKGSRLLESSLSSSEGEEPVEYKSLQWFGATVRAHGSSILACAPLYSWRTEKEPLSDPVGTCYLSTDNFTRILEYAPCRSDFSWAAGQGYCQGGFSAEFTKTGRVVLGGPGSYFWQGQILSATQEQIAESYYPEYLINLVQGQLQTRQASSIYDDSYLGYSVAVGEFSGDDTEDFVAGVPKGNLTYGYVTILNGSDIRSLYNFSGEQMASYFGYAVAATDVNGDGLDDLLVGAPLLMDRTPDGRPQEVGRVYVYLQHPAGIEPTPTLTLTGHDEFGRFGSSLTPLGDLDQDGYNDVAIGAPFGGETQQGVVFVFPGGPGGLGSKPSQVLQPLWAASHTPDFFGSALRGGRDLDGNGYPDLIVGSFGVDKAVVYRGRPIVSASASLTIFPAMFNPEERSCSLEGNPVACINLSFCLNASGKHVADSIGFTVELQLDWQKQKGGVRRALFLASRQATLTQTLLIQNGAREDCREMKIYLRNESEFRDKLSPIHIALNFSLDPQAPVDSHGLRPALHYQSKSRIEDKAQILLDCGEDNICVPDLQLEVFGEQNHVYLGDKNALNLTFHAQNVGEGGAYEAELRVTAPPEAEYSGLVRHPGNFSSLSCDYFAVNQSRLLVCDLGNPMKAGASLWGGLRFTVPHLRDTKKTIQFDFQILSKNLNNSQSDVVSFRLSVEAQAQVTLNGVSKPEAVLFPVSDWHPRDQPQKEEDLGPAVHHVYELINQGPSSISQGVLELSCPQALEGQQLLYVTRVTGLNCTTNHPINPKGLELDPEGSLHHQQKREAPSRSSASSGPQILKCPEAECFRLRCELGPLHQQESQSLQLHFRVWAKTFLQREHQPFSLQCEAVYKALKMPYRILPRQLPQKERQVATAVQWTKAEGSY
T2 sequence (P05556 21-728 limits assumed): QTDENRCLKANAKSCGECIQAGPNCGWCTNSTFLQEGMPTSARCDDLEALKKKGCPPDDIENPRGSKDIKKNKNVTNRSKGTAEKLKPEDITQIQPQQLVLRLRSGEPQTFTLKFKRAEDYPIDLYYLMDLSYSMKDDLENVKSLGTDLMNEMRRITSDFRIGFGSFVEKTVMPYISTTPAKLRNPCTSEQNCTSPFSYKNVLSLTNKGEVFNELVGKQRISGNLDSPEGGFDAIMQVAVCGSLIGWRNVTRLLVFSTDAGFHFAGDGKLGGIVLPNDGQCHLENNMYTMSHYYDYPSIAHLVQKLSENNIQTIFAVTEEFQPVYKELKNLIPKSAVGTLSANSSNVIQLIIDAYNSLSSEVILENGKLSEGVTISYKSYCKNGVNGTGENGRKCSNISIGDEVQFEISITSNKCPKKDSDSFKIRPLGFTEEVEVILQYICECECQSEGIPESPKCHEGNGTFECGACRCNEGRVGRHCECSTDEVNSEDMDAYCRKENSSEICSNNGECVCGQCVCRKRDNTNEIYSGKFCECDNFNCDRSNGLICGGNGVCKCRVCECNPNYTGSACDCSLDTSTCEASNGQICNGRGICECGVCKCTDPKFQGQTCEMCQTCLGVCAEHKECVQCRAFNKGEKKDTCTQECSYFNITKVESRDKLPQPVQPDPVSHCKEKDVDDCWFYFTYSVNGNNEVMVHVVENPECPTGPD
Description: A. Solid Phase Receptor Assay (SPRA) for α5β1 Function
Wells were washed 3 times with 150 μL TBS+ and then 150 μL of blocking buffer (TBS+ with 1% bovine serum albumin, Sigma A7906) was added. The plate was incubated for 1 hr at 37° C. and then washed 3× with TBS+ buffer. […] Compounds were diluted to 20 μM and then 1 μL was added to each well of the plate according to a standard template with each sample repeated in triplicate. After incubation for two hours at room temperature, the plate was washed 3× with 150 μL of TBS+ buffer. To each well, 50 μL of biotinylated anti-α5 antibody (R&D Systems, BAF1864) at 0.5 μg/mL in TBS+/0.1% BSA were added and the plate covered and incubated for 1 hr at room temperature. After washing the plate 3× with 150 μL of TBS+ buffer, 50 μL of streptavidin-conjugated horseradish peroxidase (R&D Systems, DY998) diluted in TBS+ blocking buffer were added to the wells and the plate incubated for 20 min at room temperature. The plate was washed 3× with TBS+ buffer followed by 50 μL of room temperature TMB substrate (Sigma, T4444) added to each well in the dark and the plate incubated for 25 min at room temperature. 25 μL of 1.0 M phosphoric acid was added as a stop solution and the plates were read at 450 nm using a Spectramax plate reader.

[3] = target: T3, Recombinant human integrin ανβ6 (Homo sapiens, UniProt P06756+P18564); experiment: Solid Phase Receptor Assay (SPRA) for ανβ6 function; conditions: for IC50: plate-bound human LAP, read-out: αvβ6 SPRA IC50
T3 construct: purchased R&D Systems 3817-AV
T3 sequence (P06756 31-992 limits assumed): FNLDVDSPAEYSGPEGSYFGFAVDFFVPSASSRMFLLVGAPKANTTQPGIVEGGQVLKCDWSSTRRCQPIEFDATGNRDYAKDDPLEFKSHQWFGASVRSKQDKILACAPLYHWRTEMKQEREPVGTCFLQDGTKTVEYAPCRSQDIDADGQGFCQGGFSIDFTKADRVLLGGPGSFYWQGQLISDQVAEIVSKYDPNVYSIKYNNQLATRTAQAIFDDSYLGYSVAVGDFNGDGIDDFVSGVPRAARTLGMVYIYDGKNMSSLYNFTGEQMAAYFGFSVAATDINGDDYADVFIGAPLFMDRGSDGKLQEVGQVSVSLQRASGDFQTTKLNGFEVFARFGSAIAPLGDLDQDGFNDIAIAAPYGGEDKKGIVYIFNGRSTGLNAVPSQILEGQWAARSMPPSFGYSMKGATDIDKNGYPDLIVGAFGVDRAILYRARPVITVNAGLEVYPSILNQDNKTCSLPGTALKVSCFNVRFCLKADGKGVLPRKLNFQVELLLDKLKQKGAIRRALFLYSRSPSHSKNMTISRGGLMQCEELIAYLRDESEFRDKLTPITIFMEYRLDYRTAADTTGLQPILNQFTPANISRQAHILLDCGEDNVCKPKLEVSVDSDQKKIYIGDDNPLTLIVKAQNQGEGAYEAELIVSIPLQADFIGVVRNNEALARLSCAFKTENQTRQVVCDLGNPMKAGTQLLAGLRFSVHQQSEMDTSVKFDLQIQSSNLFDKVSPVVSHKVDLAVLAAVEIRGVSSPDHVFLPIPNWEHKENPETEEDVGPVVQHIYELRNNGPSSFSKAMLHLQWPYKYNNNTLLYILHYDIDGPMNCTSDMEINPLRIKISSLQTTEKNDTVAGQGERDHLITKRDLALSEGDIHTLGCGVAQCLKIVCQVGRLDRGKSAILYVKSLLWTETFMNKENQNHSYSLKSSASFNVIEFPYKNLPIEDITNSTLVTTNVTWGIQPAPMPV
T3 sequence (P18564 22-707 limits assumed): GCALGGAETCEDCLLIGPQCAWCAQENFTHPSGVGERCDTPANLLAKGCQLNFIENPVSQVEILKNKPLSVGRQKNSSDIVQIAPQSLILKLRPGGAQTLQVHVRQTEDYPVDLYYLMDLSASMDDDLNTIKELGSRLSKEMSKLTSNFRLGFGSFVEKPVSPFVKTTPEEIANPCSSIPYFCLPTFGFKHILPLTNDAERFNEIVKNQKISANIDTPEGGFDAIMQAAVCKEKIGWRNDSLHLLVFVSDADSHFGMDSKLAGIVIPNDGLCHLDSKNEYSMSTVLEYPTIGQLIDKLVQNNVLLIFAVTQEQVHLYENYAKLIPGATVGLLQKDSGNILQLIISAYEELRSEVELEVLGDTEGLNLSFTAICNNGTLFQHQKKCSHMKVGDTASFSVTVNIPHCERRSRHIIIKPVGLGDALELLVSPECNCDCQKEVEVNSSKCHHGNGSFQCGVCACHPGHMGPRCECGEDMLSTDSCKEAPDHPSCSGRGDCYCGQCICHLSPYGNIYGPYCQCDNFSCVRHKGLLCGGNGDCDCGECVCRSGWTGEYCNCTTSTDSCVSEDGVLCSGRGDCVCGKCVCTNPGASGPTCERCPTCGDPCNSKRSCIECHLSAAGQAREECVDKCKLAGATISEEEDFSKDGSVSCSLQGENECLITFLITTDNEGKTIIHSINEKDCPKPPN
Description: E. Solid Phase Receptor Assay (SPRA) for ανβ6 Function
Wells were washed 3 times with 150 μL TBS+, and then 150 μL of blocking buffer (TBS+ with 1% bovine serum albumin, Sigma A7906) was added. The plate was incubated for 1 hr at 37° C., and then washed 3× with TBS+ buffer. […] Compounds were diluted to 20 μM and then 1 μL was added to each well of the plate according to a standard template with each sample repeated in triplicate. After incubation for two hours at room temperature, the plate was washed 3× with 150 μL of TBS+ buffer. To each well, 50 μL of biotinylated anti-αν antibody (R&D Systems, BAF1219) at 0.5 μg/mL in TBS+/0.1% BSA were added and the plate was covered and incubated for 1 hr at room temperature. After washing the plate 3× with 150 μL of TBS+ buffer, 50 μL of streptavidin-conjugated horseradish peroxidase (R&D Systems, DY998) diluted in TBS+ blocking buffer were added to the wells and the plate incubated for 20 min at room temperature. The plate was washed 3× with TBS+ buffer followed by 50 μL of TMB substrate (Sigma T4444) added to each well in the dark and the plate incubated for 10 min at room temperature. 25 μL of 1.0 M phosphoric acid was added as a stop solution and the plates were read at 450 nm using a Spectramax plate reader.

[4] = target: T4, Recombinant human integrin ανβ3 (Homo sapiens, UniProt P05106+P06756); experiment: Solid Phase Receptor Assay (SPRA) for ανβ3 function; conditions: for IC50: plate-bound human vitronectin, read-out: αvβ3 SPRA IC50
T4 construct: purchased R&D Systems 3050-AV
T4 sequence (P06756 31-992 limits assumed): as the sequence (P06756 31-992 limits assumed) above
T4 sequence (P05106 27-718 limits assumed): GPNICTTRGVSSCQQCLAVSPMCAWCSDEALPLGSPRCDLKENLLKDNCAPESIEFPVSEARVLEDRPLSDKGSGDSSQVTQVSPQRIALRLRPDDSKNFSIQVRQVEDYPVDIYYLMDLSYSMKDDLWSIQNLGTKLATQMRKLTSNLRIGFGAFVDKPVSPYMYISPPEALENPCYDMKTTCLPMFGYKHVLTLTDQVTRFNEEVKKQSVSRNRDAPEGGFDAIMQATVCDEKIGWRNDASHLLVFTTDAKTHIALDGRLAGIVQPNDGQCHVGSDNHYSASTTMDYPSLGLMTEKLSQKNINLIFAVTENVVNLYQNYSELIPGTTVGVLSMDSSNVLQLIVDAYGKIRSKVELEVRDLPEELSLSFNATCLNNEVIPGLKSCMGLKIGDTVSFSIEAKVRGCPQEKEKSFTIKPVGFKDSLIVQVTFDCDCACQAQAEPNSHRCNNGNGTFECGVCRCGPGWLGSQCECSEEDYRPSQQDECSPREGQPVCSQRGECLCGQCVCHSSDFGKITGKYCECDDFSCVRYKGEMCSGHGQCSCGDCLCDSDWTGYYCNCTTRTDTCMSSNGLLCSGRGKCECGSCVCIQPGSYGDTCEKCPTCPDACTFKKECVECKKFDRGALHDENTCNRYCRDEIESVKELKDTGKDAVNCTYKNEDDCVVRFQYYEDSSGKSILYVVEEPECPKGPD
Description: C. Solid Phase Receptor Assay (SPRA) for ανβ3 Function
Wells were washed 3 times with 150 μL TBS+ and then 150 μL of blocking buffer (TBS+ with 1% bovine serum albumin, Sigma A7906) was added. The plate was incubated for 1 hr at 37° C. and then washed 3× with TBS+ buffer. […] Compounds were diluted to 20 μM and then 1 μL was added to each well of the plate according to a standard template with each sample repeated in triplicate. After incubation for two hours at room temperature, the plate was washed 3× with 150 μL of TBS+ buffer. To each well, 50 μL of biotinylated anti-αν antibody (R&D Systems, BAF1219) at 0.5 μg/mL in TBS+/0.1% BSA were added and the plate covered and incubated for 1 hr at room temperature. After washing the plate 3× with 150 μL of TBS+ buffer, 50 μL of streptavidin-conjugated horseradish peroxidase (R&D Systems, DY998) diluted in TBS+ blocking buffer were added to the wells and the plate incubated for 20 min at room temperature. The plate was washed 3× with TBS+ buffer followed by 50 μL of TMB substrate (Sigma, T4444) added to each well in the dark and the plate was incubated for 25 min at room temperature. 25 μL of 1.0 M phosphoric acid was added as a stop solution and the plates were read at 450 nm using a Spectramax plate reader.

T1 sequence (P06756 31-992 limits assumed): as the sequence (P06756 31-992 limits assumed) above
T1 sequence (P18084 24-719 limits assumed): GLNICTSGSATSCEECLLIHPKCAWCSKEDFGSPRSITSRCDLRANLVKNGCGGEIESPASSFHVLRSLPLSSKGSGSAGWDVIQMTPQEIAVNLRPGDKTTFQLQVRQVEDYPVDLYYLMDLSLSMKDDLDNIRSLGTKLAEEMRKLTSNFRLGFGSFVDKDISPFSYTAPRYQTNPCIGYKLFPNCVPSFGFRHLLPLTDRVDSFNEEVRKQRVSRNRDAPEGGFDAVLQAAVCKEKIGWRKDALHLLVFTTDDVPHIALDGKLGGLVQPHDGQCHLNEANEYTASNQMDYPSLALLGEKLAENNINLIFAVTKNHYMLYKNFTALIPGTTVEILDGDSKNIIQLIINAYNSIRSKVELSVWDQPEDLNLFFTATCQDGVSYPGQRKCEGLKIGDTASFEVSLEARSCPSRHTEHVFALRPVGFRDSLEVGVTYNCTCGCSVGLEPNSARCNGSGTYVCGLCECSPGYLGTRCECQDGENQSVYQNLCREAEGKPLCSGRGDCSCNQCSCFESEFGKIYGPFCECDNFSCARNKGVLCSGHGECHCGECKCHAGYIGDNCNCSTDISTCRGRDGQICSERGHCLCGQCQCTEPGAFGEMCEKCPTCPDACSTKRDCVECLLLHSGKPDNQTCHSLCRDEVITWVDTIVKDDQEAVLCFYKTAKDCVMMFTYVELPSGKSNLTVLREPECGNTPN

COc1c(C(CC(=O)O)Cc2cc(OCCc3ccc4c(n3)NCCC4)n(C)n2)cccc1C(C)(C)C (centres unmarked) [Example 33, 3-(3-(tert-butyl)-2-methoxyphenyl)-4-(1-methyl-5-(2-(5,6,7,8-tetrahydro-1,8-naphthyridin-2-yl)ethoxy)-1H-pyrazol-3-yl)butanoic Acid]
IC50 [1]: 3.1 nM | IC50 [2]: 3900 nM | IC50 [3]: 2400 nM | IC50 [4]: 150 nM

Cn1nc(CC(CC(=O)O)c2cc(F)cc(C3(C(F)F)CC3)c2)cc1OCCc1ccc2c(n1)NCCC2 (centres unmarked) [Example 21, 3-(3-(1-(difluoromethyl)cyclopropyl)-5-fluorophenyl)-4-(1-methyl-5-(2-(5,6,7,8-tetrahydro-1,8-naphthyridin-2-yl)ethoxy)-1H-pyrazol-3-yl)butanoic Acid]
IC50 [1]: 0.2 nM | IC50 [2]: 12 nM | IC50 [3]: 47 nM | IC50 [4]: 2.5 nM

Cn1nc(CC(CC(=O)O)c2cc(C#N)cc(C(C)(C)C(F)(F)F)c2)cc1OCCc1ccc2c(n1)NCCC2 (centres unmarked) [Example 28, 3-[3-cyano-5-(2,2,2-trifluoro-1,1-dimethyl-ethyl)phenyl]-4-[1-methyl-5-[2-(5,6,7,8-tetrahydro-1,8-naphthyridin-2-yl)ethoxyl]pyrazol-3-yl]butanoic Acid Trifluoroacetate]
IC50 [1]: 0.8 nM | IC50 [2]: 8.5 nM | IC50 [3]: 15 nM | IC50 [4]: 10 nM

COc1ccc([C@H](CC(=O)O)Cc2cc(OCCc3ccc4c(n3)NCCC4)n(C)n2)cc1F [Example 15, (3S)-3-(3-fluoro-4-methoxyphenyl)-4-(1-methyl-5-(2-(5,6,7,8-tetrahydro-1,8-naphthyridin-2-yl)ethoxy)-1H-pyrazol-3-yl)butanoic Acid]
IC50 [1]: 0.3 nM | IC50 [2]: 85 nM | IC50 [3]: 49 nM | IC50 [4]: 2.6 nM

COc1ccc(C#N)cc1C(CC(=O)O)Cc1cc(OCCc2ccc3c(n2)NCCC3)n(C)n1 (centres unmarked) [Example 46, 3-(5-cyano-2-methoxyphenyl)-4-(1-methyl-5-(2-(5,6,7,8-tetrahydro-1,8-naphthyridin-2-yl)ethoxy)-1H-pyrazol-3-yl)butanoic Acid Trifluoroacetate]
IC50 [1]: 1 nM | IC50 [2]: 51 nM | IC50 [3]: 30 nM | IC50 [4]: 9.9 nM

COc1ccc(Br)cc1C(CC(=O)O)Cc1cc(OCCc2ccc3c(n2)NCCC3)n(C)n1 (centres unmarked) [Example 14, 3-(5-bromo-2-methoxyphenyl)-4-(1-methyl-5-(2-(5,6,7,8-tetrahydro-1,8-naphthyridin-2-yl)ethoxy)-1H-pyrazol-3-yl)butanoic acid trifluoroacetate]
IC50 [1]: 7.9 nM | IC50 [2]: 44 nM | IC50 [3]: 22 nM | IC50 [4]: 6.7 nM

Cn1nc(CC(CC(=O)O)c2cc(Cl)cc(C(C)(C)C(F)(F)F)c2)cc1OCCc1ccc2c(n1)NCCC2 (centres unmarked) [Example 27, 3-(3-chloro-5-(1,1,1-trifluoro-2-methylpropan-2-yl)phenyl)-4-(1-methyl-5-(2-(5,6,7,8-tetrahydro-1,8-naphthyridin-2-yl)ethoxy)-1H-pyrazol-3-yl)butanoic Acid]
IC50 [1]: 0.5 nM | IC50 [2]: 18 nM | IC50 [3]: 47 nM | IC50 [4]: 5.6 nM

Cn1nc(CC(CC(=O)O)c2cc(Br)cc(C(C)(C)C)c2)cc1OCCc1ccc2c(n1)NCCC2 (centres unmarked) [Example 16, 3-(3-bromo-5-tert-butyl-phenyl)-4-(1-methyl-5-(2-(5,6,7,8-tetrahydro-1,8-naphthyridin-2-yl)ethoxy)-1H-pyrazol-3-yl)butanoic Acid]
IC50 [1]: 3.1 nM | IC50 [2]: 30 nM | IC50 [3]: 80 nM | IC50 [4]: 7.7 nM

Cn1nc(CC(CC(=O)O)c2cc(F)cc(C(C)(C)C)c2)cc1OCCc1ccc2c(n1)NCCC2 (centres unmarked) [Example 38, 3-(3-(tert-butyl)-5-fluorophenyl)-4-(1-methyl-5-(2-(5,6,7,8-tetrahydro-1,8-naphthyridin-2-yl)ethoxy)-1H-pyrazol-3-yl)butanoic Acid]
IC50 [1]: 0.3 nM | IC50 [2]: 23 nM | IC50 [3]: 110 nM | IC50 [4]: 7.9 nM

COc1ccc(C(=O)O)cc1C(CC(=O)O)Cc1cc(OCCc2ccc3c(n2)NCCC3)n(C)n1 (centres unmarked) [Example 48, 3-(1-carboxy-3-(1-methyl-5-(2-(5,6,7,8-tetrahydro-1,8-naphthyridin-2-yl)ethoxy)-1H-pyrazol-3-yl)propan-2-yl)-4-methoxybenzoic Acid Trifluoroacetate]
IC50 [1]: 0.7 nM | IC50 [2]: 230 nM | IC50 [3]: 680 nM | IC50 [4]: 5 nM

COc1ccc(C(F)(F)F)cc1C(CC(=O)O)Cc1cc(OCCc2ccc3c(n2)NCCC3)n(C)n1 (centres unmarked) [Example 13, 3-(2-methoxy-5-(trifluoromethyl)phenyl)-4-(1-methyl-5-(2-(5,6,7,8-tetrahydro-1,8-naphthyridin-2-yl)ethoxy)-1H-pyrazol-3-yl)butanoic Acid Trifluoroacetate]
IC50 [1]: 16 nM | IC50 [2]: 59 nM | IC50 [3]: 51 nM | IC50 [4]: 11 nM

COCC1(c2cc(Cl)cc(C(CC(=O)O)Cc3cc(OCCc4ccc5c(n4)NCCC5)n(C)n3)c2)CCOCC1 (centres unmarked) [Example 29, 3-(3-chloro-5-(4-(methoxymethyl)tetrahydro-2H-pyran-4-yl)phenyl)-4-(1-methyl-5-(2-(5,6,7,8-tetrahydro-1,8-naphthyridin-2-yl)ethoxy)-1H-pyrazol-3-yl)butanoic Acid]
IC50 [1]: 0.5 nM | IC50 [2]: 5.1 nM | IC50 [3]: 52 nM | IC50 [4]: 5.3 nM

COc1ccc(C(C)(C)C)cc1C(CC(=O)O)Cc1cc(OCCc2ccc3c(n2)NCCC3)n(C)n1 (centres unmarked) [Example 32, 3-(5-(tert-butyl)-2-methoxyphenyl)-4-(1-methyl-5-(2-(5,6,7,8-tetrahydro-1,8-naphthyridin-2-yl)ethoxy)-1H-pyrazol-3-yl)butanoic Acid]
inhibitory activity at ανβ5 (in words) [1]: low activity | IC50 [1]: 280 nM | inhibitory activity at α5β1 (in words) [2]: high inhibitory activity | IC50 [2]: 33 nM | inhibitory activity at ανβ6 (in words) [3]: low activity | IC50 [3]: 230 nM | inhibitory activity at ανβ3 (in words) [4]: low activity | IC50 [4]: 380 nM
